Measurements published in article PMC4528135, “Kinetic Investigations of the Role of Factor Inhibiting Hypoxia-inducible Factor (FIH) as an Oxygen Sensor” (The Journal of Biological Chemistry, 2015).

Legend:
Assay type in all cases: biochemical
[1] = biological target: T1, PHD2 (catalytic domain, residues 181–426) (Homo sapiens, UniProt Q9GZT9); assay: Steady-state kinetics of PHD2-catalyzed HIF-α CODD/NODD hydroxylation (MALDI-TOF-MS); conditions: PHD2, 4 μM PHD2, 50 μM Fe(II), 4 mM L-ascorbate, 50 mM HEPES pH 7.5, 37 °C
T1 construct: The catalytic domain of PHD2 (residues 181–426) was purified as described; made in house
Protocol: (§1) Enzymatic assays were conducted as described ([46], [47]). Unless otherwise stated, the assay mixture typically contained 5 μM FIH, 500 μM substrate, 500 μM 2OG, 1 mM L-ascorbate, and 50 μM Fe(NH4)2(SO4)2 or 4 μM PHD2, 100 μM substrate, 300 μM 2OG, 4 mM L-ascorbate, and 50 μM Fe(NH4)2(SO4)2. For HIF-1α CODD19-mer, the background levels of methionine oxidation resulting from assay conditions were subtracted based on non-enzymatic controls ([48]).
The O2 dependence of FIH-catalyzed reactions was determined by conducting enzymatic assays in an “In vivo 500 Hypoxia Workstation” (Ruskinn) using buffers pre-equilibrated under different pO2 values for 24 h. The O2 dependence of PHD2-catalyzed reactions was determined by conducting enzymatic assays in sealed glass vials with variable N2/O2 contents ([42]). Reactions were stopped by spotting samples onto a matrix-assisted laser desorption/ionization-time of flight mass spectrometry (MALDI-TOF-MS) target plate and immediately mixing with α-cyano-4-hydroxycinnamic acid matrix. Hydroxylation levels were assessed by MALDI-TOF-MS as described ([46]).

PHD2 [2] = biological target: T2, PHD2 (Homo sapiens, UniProt Q9GZT9); assay: Stopped-flow UV-visible spectroscopy, PHD2·Fe(II)·2OG·substrate + O2; conditions: anaerobic 0.8 mM PHD2, 1 mM peptide, 5 mM 2OG, 50 mM HEPES pH 7.5, mixed 1:1 with O2-saturated buffer at 5 °C, double exponential fit
T2 construct: The catalytic domain of PHD2 (residues 181–426) was purified as described; made in house
Protocol: Stopped-flow UV-visible spectroscopy experiments were performed as described previously ([32], [42]). […] The reaction was observed over 1000 s using a photodiode array detector, and kinetic traces were analyzed using Origin version 8.51 software. Data were fitted with a double exponential function (y = A1 × exp(−kriset) + A2 × exp(−kfallt) + y0). The A1, A2, and y0 parameters were restricted with upper limits to match the observed amplitude/offset changes.
Previously reported pre-steady-state kinetic studies on PHD2 focused on its reaction with CODD HIF-1α 19-mer peptide ([38], [42]); there is no reported information on the rates of PHD2 reaction with O2 in the presence of NODD HIF-1α or HIF-2α substrates. To ascertain whether a slow reaction with O2 under pre-steady-state conditions is common to PHD2-catalyzed hydroxylation of both CODD and NODD, we investigated the reaction of PHD2 with NODD substrates in comparison with CODD for both HIF-1α and HIF-2α. Pre-steady-state reactions of PHD2 were initiated by rapid mixing of anaerobic PHD2·Fe(II)·2OG·HIF-α complexes with O2-saturated buffer at 5 °C. Reactions were initially observed using a photodiode array detector, and difference spectra (in comparison with the reaction with O2-free buffer) were subsequently analyzed.
FIGURE 5. Pre-steady-state kinetics of PHD2-catalyzed HIF-1/2α hydroxylation. […] B, stopped-flow kinetic traces at 520 nm showing absorbance changes in control experiments: Fe(II) only, mix of Fe(II) and 2OG, reaction of PHD2·Fe(II)·2OG complex with O2 in the absence of CODD; reaction of PHD2·Fe(II)·N-oxalylglycine (NOG)·CODD complex with O2. N-Oxalylglycine is an inhibitor of 2OG oxygenases. […] The kinetic traces represent the average of triplicate assays. E, HIF-1/2α peptide hydroxylation, as determined by MALDI-TOF-MS. Reactions were quenched with 1% CF3CO2H at defined time points.

PHD2 [3] = biological target: T2, PHD2; assay: Rapid quench-flow, PHD2 pre-steady-state product and succinate formation; conditions: same mixture as stopped-flow, O2-saturated buffer 1:1, 5 °C, quenched with 1% CF3CO2H
Protocol: Rapid quench-flow experiments were performed using the same conditions and preparation of the assay mixture as used in stopped-flow experiments. Rapid quench-flow equipment (TgK Scientific Ltd.) in an anaerobic glove box was used for the experiments. Samples were quenched with 1% CF3CO2H and analyzed using MALDI-TOF-MS (peptide hydroxylation) as described above or liquid chromatography-mass spectrometry (LC-MS, for succinate production). For LC-MS, chromatographic separation was performed at 50 °C using a Waters ACQUITY BEH Amide 1.7-μm, 2.1 × 100-mm column on a Waters ACQUITY^TM ultraperformance liquid chromatography system (Waters Corp., Milford, MA). The following eluents were used: mobile phase A: 10% H2O, 90% acetonitrile (v/v), 10 mM ammonium formate; mobile phase B: 50% H2O, 50% acetonitrile (v/v), 10 mM ammonium formate. The elution gradient was 0–7.0 min linear from 10 to 30% B, and 7.0–9.0 min at 10% B for re-equilibration of the column. A constant flow rate of 0.4 ml/min was used. Analytes were detected in negative ionization mode using single reaction monitoring on a Quattro triple quadrupole mass spectrometer (Waters) with a cone voltage of 15 V and a capillary voltage of 3.0 kV. The desolvation temperature was set to 250 °C, and the source temperature was set to 120 °C.
To investigate correlation of the spectroscopic observations with rates of product accumulation, equivalent reactions were analyzed by rapid quench-flow methodology. Anerobically prepared PHD2·Fe(II)·2OG·peptide substrate complexes were mixed with O2-saturated buffer in a 1:1 ratio; reactions were quenched at defined time points with 1% aqueous CF3CO2H. The level of peptide hydroxylation was assessed by MALDI-TOF-MS ([42]), and succinate accumulation was analyzed by LC-MS. To obtain rate constants for product accumulation, the results were fitted with a single exponential function (Fig. 5E and Table 3).

PHD2 [4] = biological target: T2, PHD2; assay: Time course of PHD2-catalyzed peptide hydroxylation; conditions: 4 μM PHD2, 100 μM peptide, 50 μM Fe(II), 300 μM 2OG, 1 mM L-ascorbate, 50 mM HEPES pH 7.5, 37 °C, atmospheric O2; MALDI-TOF-MS; triplicate assays
Protocol: as §1
FIGURE 3. PHD2- and FIH-catalyzed hydroxylation of HIF-1/2α peptide substrates. A, time course of HIF-1/2α CODD19-mer peptide hydroxylation; B, time course of HIF-1/2α NODD19-mer peptide hydroxylation. Conditions were as follows: 4 μM PHD2, 100 μM peptide, 50 μM Fe(II), 300 μM 2OG, 1 mM L-ascorbate in HEPES 50 mM (pH 7.5) were incubated at 37 °C at atmospheric O2. C, time course of HIF-1α CAD 19- and 35-mer peptide hydroxylation. D, time course of HIF-2α CAD 19- and 35-mer peptide hydroxylation. Conditions were as follows: 5 μM FIH, 500 μM peptide, 50 μM Fe(II), 500 μM 2OG, 1 mM L-ascorbate in HEPES 50 mM (pH 7.5) were incubated at 37 °C at atmospheric O2. The different hydroxylation levels were analyzed by MALDI-TOF-MS. Error bars, S.D. of triplicate assays.

T2 sequence (Q9GZT9 181-426): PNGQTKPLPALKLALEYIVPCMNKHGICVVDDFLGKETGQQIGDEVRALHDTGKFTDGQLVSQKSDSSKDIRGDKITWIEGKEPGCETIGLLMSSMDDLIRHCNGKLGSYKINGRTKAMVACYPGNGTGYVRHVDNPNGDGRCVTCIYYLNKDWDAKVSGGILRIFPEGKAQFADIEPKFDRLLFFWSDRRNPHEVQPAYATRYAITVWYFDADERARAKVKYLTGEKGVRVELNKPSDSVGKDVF
T1 sequence (Q9GZT9 181-426): as above

**Q.** Which results are given for “DLDLEMLAPYIPMDDDFQL [HIF-1α CODD, 19-mer fragment (556–574) of the HIF-1α C-terminal oxygen-dependent degradation domain, PHD2 substrate]”?
**A.** kcat^app [1]: 0.060 ± 0.006 s⁻¹; Stopped-flow, 520 nm (PHD2) krise phase (PHD2 [2]): 0.015 ± 0.005 s⁻¹; Stopped-flow, 520 nm (PHD2) kfall phase (PHD2 [2]; traces average of triplicate): 0.040 ± 0.007 s⁻¹; Rapid quench-flow kproduct (PHD2 [3]; peptide hydroxylation by MALDI-TOF-MS, single exponential fit): 0.0155 ± 0.0012 s⁻¹; Rapid quench-flow ksuccinate (PHD2 [3]; succinate by LC-MS): 0.0130 ± 0.0020 s⁻¹; substrate hydroxylation after 15 min (PHD2 [4]): 70%
